Test results as given in US20240109900A1, “AZABICYCLIC SHP2 INHIBITORS” (IRBM S.P.A., priority 2021, published 2024).

Assays:
[1] = tested on: ERK phosphorylation in KYSE-520 cells; assay: Phospho-ERK cellular assay; type: cell-based; details: Homo sapiens, KYSE-520, 2 h, KYSE-520 cells, 2 h at 37° C., phospho-ERK1/2 (Thr202/Tyr204) TR-FRET; read-out: PERK IC50
Summary of the method: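 TR-FRET read-out of ERK1/2 Thr202/Tyr204 phosphorylation was taken after overnight antibody incubation at room temperature. Before that, KYSE-520 cells were treated 2 h at 37 °C with compound dilutions and lysed 30 min. Percent inhibition relative to vehicle and cell-free wells was fitted four-parametrically to give IC50.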

[2] = biological target: SHP-2 enzyme (Met1-Leu525) (Homo sapiens (Human), UniProt Q06124); assay: SHP2 inhibition enzymatic assay; type: biochemical; details: 0.5 nM SHP-2 activated by 500 nM IRS1 peptide, 75 μM DiFMUP substrate; read-out: SHP2wt-IC50
Summary of the method: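 Compounds were preincubated 30 min with 0.5 nM SHP-2 (Met1-Leu525) plus 500 nM IRS1 activating peptide (pH 7.2 HEPES, 5 mM DTT), then 75 μM DiFMUP substrate reacted 30 min at room temperature. After bpV quench, DiFMUP fluorescence gave % inhibition; four-parameter logistic fit yielded IC50.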

Chain of SHP-2 enzyme (Met1-Leu525) (Q06124 1-525): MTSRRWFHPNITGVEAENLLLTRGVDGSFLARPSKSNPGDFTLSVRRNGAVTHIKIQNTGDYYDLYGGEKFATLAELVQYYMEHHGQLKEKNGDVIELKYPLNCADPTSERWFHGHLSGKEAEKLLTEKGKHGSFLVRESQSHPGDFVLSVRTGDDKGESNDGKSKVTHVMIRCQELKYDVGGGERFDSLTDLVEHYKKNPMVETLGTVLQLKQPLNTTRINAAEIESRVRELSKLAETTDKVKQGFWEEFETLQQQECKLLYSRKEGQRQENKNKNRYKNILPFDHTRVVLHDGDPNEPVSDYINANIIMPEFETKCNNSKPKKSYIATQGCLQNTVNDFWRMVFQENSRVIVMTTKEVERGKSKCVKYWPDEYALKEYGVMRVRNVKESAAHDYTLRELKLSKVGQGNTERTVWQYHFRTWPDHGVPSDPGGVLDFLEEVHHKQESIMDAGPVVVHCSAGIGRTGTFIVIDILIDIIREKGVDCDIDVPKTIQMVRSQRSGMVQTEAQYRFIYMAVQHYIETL

Row | Compound | IC50 [1] [nM] | IC50 [2] [nM]
1 | CCOc1ccc(-c2n[nH]c3nc(N4CC[C@@H]5[C@H](C4)[C@@]5(CN)c4ccccc4F)cnc23)c2cccnc12 [Example 164, ((1S,6R,7R)-3-(3-(8-ethoxyquinolin-5-yl)-1H-pyrazolo[3,4-b]pyrazin-6-yl)-7-(2-fluorophenyl)-3-azabicyclo[4.1.0]heptan-7-yl)methanamine] | < 1000 | < 500
2 | NC[C@]1(c2ccccc2F)[C@@H]2CCN(c3cnc4c(-c5ccc6nccnc6c5Cl)n[nH]c4n3)C[C@@H]21 [Example 167, ((1S,6R,7R)-3-(3-(5-chloroquinoxalin-6-yl)-1H-pyrazolo[3,4-b]pyrazin-6-yl)-7-(2-fluorophenyl)-3-azabicyclo[4.1.0]heptan-7-yl)methanamine] | < 1000 | < 500
3 | NC[C@]1(c2ccccc2F)[C@@H]2CCN(c3cnc4c(N5CCCc6ncccc65)n[nH]c4n3)C[C@@H]21 [Example 169, ((1S,6R,7R)-3-(3-(3,4-dihydro-1,5-naphthyridin-1(2H)-yl)-1H-pyrazolo[3,4-b]pyrazin-6-yl)-7-(2-fluorophenyl)-3-azabicyclo[4.1.0]heptan-7-yl)methanamine] | < 1000 | < 500
4 | NC[C@]1(c2ccccc2F)[C@@H]2CCN(c3cnc4c(-c5ccnc(-c6ncco6)c5Cl)n[nH]c4n3)C[C@@H]21 [Example 170, ((1S,6R,7R)-3-(3-(3-chloro-2-(oxazol-2-yl)pyridin-4-yl)-1H-pyrazolo[3,4-b]pyrazin-6-yl)-7-(2-fluorophenyl)-3-azabicyclo[4.1.0]heptan-7-yl)methanamine] | < 1000 | < 500
5 | Cc1cc2ncccc2cc1-c1n[nH]c2nc(N3CC[C@@H]4[C@H](C3)[C@@]4(CN)c3ccccc3F)cnc12 [Example 171, ((1S,6R,7R)-7-(2-fluorophenyl)-3-(3-(7-methylquinolin-6-yl)-1H-pyrazolo[3,4-b]pyrazin-6-yl)-3-azabicyclo[4.1.0]heptan-7-yl)methanamine] | < 1000 | < 500
6 | Cc1c(-c2n[nH]c3nc(N4CC[C@@H]5[C@H](C4)[C@@]5(CN)c4ccccc4F)cnc23)ccc2ncccc12 [Example 172, ((1S,6R,7R)-7-(2-fluorophenyl)-3-(3-(5-methylquinolin-6-yl)-1H-pyrazolo[3,4-b]pyrazin-6-yl)-3-azabicyclo[4.1.0]heptan-7-yl)methanamine] | < 1000 | < 500
7 | NC[C@]1(c2ccccc2F)[C@@H]2CCN(c3cnc4c(-c5ccncc5Cl)n[nH]c4n3)C[C@@H]21 [Example 176, ((1S,6R,7R)-3-(3-(3-chloropyridin-4-yl)-1H-pyrazolo[3,4-b]pyrazin-6-yl)-7-(2-fluorophenyl)-3-azabicyclo[4.1.0]heptan-7-yl)methanamine] | < 1000 | < 500
8 | Cc1c(-c2n[nH]c3nc(N4CC[C@@H]5[C@H](C4)[C@@]5(CN)c4cccc(F)c4F)cnc23)ccc2nn(C)cc12 [Example 177, ((1S,6R,7R)-7-(2,3-difluorophenyl)-3-(3-(2,4-dimethyl-2H-indazol-5-yl)-1H-pyrazolo[3,4-b]pyrazin-6-yl)-3-azabicyclo[4.1.0]heptan-7-yl)methanamine] | < 1000 | < 500
9 | NC[C@]1(c2cccc(F)c2F)[C@@H]2CCN(c3cnc4c(-c5ccnc(N)c5Cl)n[nH]c4n3)C[C@@H]21 [Example 178, 4-(6-((1S,6R,7R)-7-(aminomethyl)-7-(2,3-difluorophenyl)-3-azabicyclo[4.1.0]heptan-3-yl)-1H-pyrazolo[3,4-b]pyrazin-3-yl)-3-chloropyridin-2-amine] | < 1000 | < 500
10 | Cc1c(-c2n[nH]c3nc(N4CC[C@@H]5[C@H](C4)[C@@]5(CN)c4ncccc4F)cnc23)ccc2nn(C)cc12 [Example 179, ((1S,6R,7S)-3-(3-(2,4-dimethyl-2H-indazol-5-yl)-1H-pyrazolo[3,4-b]pyrazin-6-yl)-7-(3-fluoropyridin-2-yl)-3-azabicyclo[4.1.0]heptan-7-yl)methanamine] | < 1000 | < 500
11 | Cc1c(-c2n[nH]c3nc(N4CC[C@@H]5[C@H](C4)[C@@]5(CN)c4ccccc4Cl)cnc23)ccc2nn(C)cc12 [Example 180, ((1S,6R,7R)-7-(2-chlorophenyl)-3-(3-(2,4-dimethyl-2H-indazol-5-yl)-1H-pyrazolo[3,4-b]pyrazin-6-yl)-3-azabicyclo[4.1.0]heptan-7-yl)methanamine] | < 1000 | < 500
12 | COc1ccc(-c2n[nH]c3nc(N4CC[C@@H]5[C@H](C4)[C@@]5(CN)c4cccc(F)c4F)cnc23)c2cccnc12 [Example 183, ((1S,6R,7R)-7-(2,3-difluorophenyl)-3-(3-(8-methoxyquinolin-5-yl)-1H-pyrazolo[3,4-b]pyrazin-6-yl)-3-azabicyclo[4.1.0]heptan-7-yl)methanamine] | < 1000 | < 500
13 | Cc1cccc([C@@]2(CN)[C@@H]3CCN(c4cnc5c(-c6ccc7nn(C)cc7c6C)n[nH]c5n4)C[C@@H]32)c1F [Example 184, ((1S,6R,7R)-3-(3-(2,4-dimethyl-2H-indazol-5-yl)-1H-pyrazolo[3,4-b]pyrazin-6-yl)-7-(2-fluoro-3-methylphenyl)-3-azabicyclo[4.1.0]heptan-7-yl)methanamine] | < 1000 | < 500

The remaining lines, values ahead:

Row | IC50 [1] [nM] | IC50 [2] [nM] | Compound
14 | < 1000 | < 500 | NC[C@]1(c2ccccc2F)[C@@H]2CCN(c3cnc4c(-c5ccnc(N)n5)n[nH]c4n3)C[C@@H]21 [Example 163, 4-(6-((1S,6R,7R)-7-(aminomethyl)-7-(2-fluorophenyl)-3-azabicyclo[4.1.0]heptan-3-yl)-1H-pyrazolo[3,4-b]pyrazin-3-yl)pyrimidin-2-amine]
15 | < 1000 | < 500 | COC(C)c1ccc(-c2n[nH]c3nc(N4CC[C@@H]5[C@H](C4)[C@@]5(CN)c4ccccc4F)cnc23)c2cccnc12 (stereo partly drawn) [Example 165, ((1S,6R,7R)-7-(2-fluorophenyl)-3-(3-(8-(1-methoxyethyl)quinolin-5-yl)-1H-pyrazolo[3,4-b]pyrazin-6-yl)-3-azabicyclo[4.1.0]heptan-7-yl)methanamine]
16 | < 1000 | < 500 | COc1cccc2c(-c3n[nH]c4nc(N5CC[C@@H]6[C@H](C5)[C@@]6(CN)c5ccccc5F)cnc34)ccnc12 [Example 166, ((1S,6R,7R)-7-(2-fluorophenyl)-3-(3-(8-methoxyquinolin-4-yl)-1H-pyrazolo[3,4-b]pyrazin-6-yl)-3-azabicyclo[4.1.0]heptan-7-yl)methanamine]
17 | < 1000 | < 500 | NC[C@]1(c2ccccc2F)[C@@H]2CCN(c3cnc4c(-c5cccc(-c6ncco6)c5Cl)n[nH]c4n3)C[C@@H]21 [Example 168, ((1S,6R,7R)-3-(3-(2-chloro-3-(oxazol-2-yl)phenyl)-1H-pyrazolo[3,4-b]pyrazin-6-yl)-7-(2-fluorophenyl)-3-azabicyclo[4.1.0]heptan-7-yl)methanamine]
18 | < 1000 | < 500 | Cc1cc(-c2n[nH]c3nc(N4CC[C@@H]5[C@H](C4)[C@@]5(CN)c4ccccc4F)cnc23)cc2cccnc12 [Example 173, ((1S,6R,7R)-7-(2-fluorophenyl)-3-(3-(8-methylquinolin-6-yl)-1H-pyrazolo[3,4-b]pyrazin-6-yl)-3-azabicyclo[4.1.0]heptan-7-yl)methanamine]
19 | < 1000 | < 500 | NC[C@]1(c2ccccc2F)[C@@H]2CCN(c3cnc4c(-c5cc(F)c6ncccc6c5)n[nH]c4n3)C[C@@H]21 [Example 174, ((1S,6R,7R)-7-(2-fluorophenyl)-3-(3-(8-fluoroquinolin-6-yl)-1H-pyrazolo[3,4-b]pyrazin-6-yl)-3-azabicyclo[4.1.0]heptan-7-yl)methanamine]
20 | < 1000 | < 500 | NC[C@]1(c2ccccc2F)[C@@H]2CCN(c3cnc4c(-c5cc6cccnc6cc5F)n[nH]c4n3)C[C@@H]21 [Example 175, ((1S,6R,7R)-7-(2-fluorophenyl)-3-(3-(7-fluoroquinolin-6-yl)-1H-pyrazolo[3,4-b]pyrazin-6-yl)-3-azabicyclo[4.1.0]heptan-7-yl)methanamine]
21 | < 1000 | < 500 | NC[C@]1(c2ccccc2Cl)[C@@H]2CCN(c3cnc4c(-c5ccnc(N)c5Cl)n[nH]c4n3)C[C@@H]21 [Example 181, 4-(6-((1S,6R,7R)-7-(aminomethyl)-7-(2-chlorophenyl)-3-azabicyclo[4.1.0]heptan-3-yl)-1H-pyrazolo[3,4-b]pyrazin-3-yl)-3-chloropyridin-2-amine]
22 | < 1000 | < 500 | Cc1c(-c2n[nH]c3nc(N4CC[C@@H]5[C@H](C4)[C@@]5(CN)c4ccccc4C(F)(F)F)cnc23)ccc2nn(C)cc12 [Example 182, ((1S,6R,7R)-3-(3-(2,4-dimethyl-2H-indazol-5-yl)-1H-pyrazolo[3,4-b]pyrazin-6-yl)-7-(2-(trifluoromethyl)phenyl)-3-azabicyclo[4.1.0]heptan-7-yl)methanamine]
23 | < 1000 | < 500 | Cc1c(-c2n[nH]c3nc(N4CC[C@@H]5[C@H](C4)[C@@]5(CN)c4ncc(C5CC5)cc4F)cnc23)ccc2nn(C)cc12 [Example 185, ((1S,6R,7S)-7-(5-cyclopropyl-3-fluoropyridin-2-yl)-3-(3-(2,4-dimethyl-2H-indazol-5-yl)-1H-pyrazolo[3,4-b]pyrazin-6-yl)-3-azabicyclo[4.1.0]heptan-7-yl)methanamine]
